Measured values reported in patent US10272110B2, “Methods for promoting HSC engraftment” (CHILDREN'S MEDICAL CENTER CORPORATION, priority 2006, dated 2019).

Experiments:
WBM cells = test: Homing of CDFA-labeled WBM to the BM niche; format: in vivo, mouse; conditions: twelve hours post-transplantation, p=0.83
vasculature (flk1) = conditions: zebrafish embryos, 36 hpf
Experimental: Wild-type age-matched embryos were arrayed into 48-well plates (˜5 embryos/well) of individual test compounds and exposed from 3-somites until 36 hpf. Three compound libraries were utilized: NINDS Custom Collection (1040), SpecPlus Collection (960) and BIOMOL ICCB Known Bioactives (480). […] In situ hybridization for runx1 and cmyb was performed to assess HSCs. Compounds were retested at 10 μM, 20 μM, and 50 μM. Stem cell specificity was assessed using flk1 at 36 hpf. PGE2, PGI2, dmPGE2 and all cox inhibitors (Sigma) were used at 10 μM to 20 μM.

cmyb/lmo2+ HSCs = test: Confocal quantification of HSCs in cmyb:GFP x lmo2:dsRed bigenic embryos; format: in vivo, zebrafish
Experimental: A long-acting derivative, 16,16-dimethyl-PGE2 (dmPGE2, 10 μM) caused an increase in runx1/cmyb+ AGM HSCs in 78% of embryos examined (97/124). AGM HSCs were inhibited by indomethacin (10 μM) treatment in 90% of embryos analyzed (92/102). […] Transgenic cmyb:GFP zebrafish with green fluorescent HSCs and myeloid progenitor cells were crossed to lmo2:dsRed fish that have red fluorescent endothelial cells and HSCs to visualize the effects of chemical exposure in vivo. […] FIG. 3.
Live 36 hpf treated bigenic zebrafish embryos were embedded in 1% low-melting point agarose containing 0.4 mg/ml Tricaine-S for confocal imaging. cmyb-GFP transgenic reporter lines were created from a BAC containing the cmyb promoter genomic sequence (Galloway, Zhu, Lin, Zon, unpublished); lmo2:DsRed fish were created as described^27. For HSC quantification, cmyb/lmo2+ positive cells were counted in projections of z-stack images (n=10/treatment).

[1] = system: CFU-S from murine bone marrow cells; test: Murine colony-forming units-spleen (CFU-S); format: in vivo, mouse
Experimental: Two independent BM samples were treated (n=5/treatment×2 replicates) for each variable. Recipient mice were lethally irradiated with a split dose of 10 Gy. 6×10^4 unfractionated dmPGE2 or control-treated BM cells were injected retro-orbitally into irradiated recipient mice. Spleens were dissected on day eight or twelve, weighed and fixed with Bouin's solution; hematopoietic colonies per spleen were counted. 1×10^5 cells/recipient were transplanted after treatment with the cox inhibitors. FACS sorted ckit^+sca1^+lineage^− BM cells were treated as above and transplanted at a dose of either 100 cells/recipient or 300 cells/recipient.

runx1/cmyb+ AGM HSCs = conditions: 10 μM
Experimental: A chemical genetic screen was conducted to identify novel pathways that modulate definitive HSC formation during zebrafish embryogenesis. FIG. 1. Genes such as runx1 and cmyb, required for HSC development during mammalian hematopoiesis, are expressed in the ventral wall of the dorsal aorta in a region analogous to the mammalian AGM at thirty-six hours post-fertilization (hpf). […] Wild-type embryos were incubated with individual compounds from the three-somite stage until thirty-six hpf. Probes for runx1 and cmyb were combined and utilized to detect HSCs by in situ hybridization.
Wild-type age-matched embryos were arrayed into 48-well plates (˜5 embryos/well) of individual test compounds and exposed from 3-somites until 36 hpf. […] In situ hybridization for runx1 and cmyb was performed to assess HSCs. Compounds were retested at 10 μM, 20 μM, and 50 μM. Stem cell specificity was assessed using flk1 at 36 hpf. PGE2, PGI2, dmPGE2 and all cox inhibitors (Sigma) were used at 10 μM to 20 μM.
Qualitative scoring (# embryos with altered HSCs/# scored) of runx1/cmyb was conducted using the following criteria: Normal/unchanged=continuous line of runx1/cmyb+ endothelial cells and occasional hematopoietic clusters. Decreased/absent=reduction in runx1/cmyb+ cells, including the presence of large gaps in the line of HSCs, isolated positive cells, or absence of expression. Increased/excess=enhancement in runx1/cmyb^+ cells, including many HSC clusters, a thickened line of HSCs, or ectopic expression.

wnt activity = test: wnt reporter TOP:dGFP zebrafish embryos; format: in vivo; conditions: vs control
Description: Clinical experience in patients with APC mutations has shown that inhibition of prostaglandin synthesis results in decreased wnt mediated polyp formation. […] These interactions were examined in vivo using a wnt reporter zebrafish transgenic line, TOP:dGFP. At fifty-percent epiboly, embryos were subjected either to nothing (control), indomethacin, or PGE2, and the amount of wnt signaling activated in the embryo assessed by GFP induction driven from the wnt binding site. Analysis of alterations in GFP expression in the head was analyzed by in situ hybridization. […] FIG. 12.

AGM HSCs = test: Rescue of AGM HSCs in the mindbomb mutant; format: in vivo, zebrafish; conditions: preliminary studies
Description: The mutant mindbomb lacks an E3 ubiquitin ligase for delta, the ligand of notch receptors. As such, mindbomb mutants completely lack notch signaling, and fail to make any hematopoietic stem cells in the AGM. Itoh et al., 4 Devel. Cell 67-82 (2003). Overexpression of runx1 rescues the number of c−myb positive cells in the AGM in mindbomb. This implies that runx is an important target of notch. […] This may be due to a defect in the ability of the cells to respond to prostaglandin E2; notch signaling is likely to be required earlier in the development of the AGM region than prostaglandin E2. Dose response curves with prostaglandin E2 in the mindbomb mutant may shed light on this. Conversely, Notch ICD embryos that have increased stem cell number by 36 hpf may be incubated with Cox inhibitors to see if prostaglandin signaling has a role in mediating AGM HSC upregulation. Other hematopoietic mutants may be studied similarly.

Compound: CCCCC(C)(C)[C@H](O)/C=C/[C@H]1[C@H](O)CC(=O)[C@@H]1C/C=C\CCCC(=O)O [dmPGE2, 16,16-dimethyl-PGE2]
- homing to the BM niche vs control (WBM cells): no significant difference
- effect on vasculature / flk1 staining (in words) (vasculature (flk1)): minimal effects on the vasculature
- HSC numbers by confocal microscopy (mean±SD) (cmyb/lmo2+ HSCs; 10 μM, bigenic embryos, n=10/treatment, DMSO 23.3±5.0): 38.0±2.2
- HSC numbers along the floor of the aorta by confocal microscopy (in words) (cmyb/lmo2+ HSCs; 36 hpf live embryos): significantly increased HSCs
- splenic weight and CFU-S12 in recipients of treated KSL cells ([1]; KSL BM cells, 100 or 300 cells per recipient): significantly increased
- CFU-S12 Colony Number ([1]; Kit+Sca+Lin−, 100 cells transplanted, EtOH 3.0 (1.4)): 6.2 (1.2)
- CFU-S12 Colony Number ([1]; Kit+Sca+Lin−, 300 cells transplanted, EtOH 5.0 (1.1)): 11.0 (1.7)
- CFU-S8 colonies ([1]; WBM ex vivo 1 μM/10^6 cells): enhanced
- number of CFU-S12, increase ([1]; WBM ex vivo 1 μM/10^6 cells, 6×10^4 cells transplanted): three-fold
- CFU-S12 Colony Number ([1]; Whole Marrow, 6000 cells transplanted, 1 μM/10^6 cells ex vivo, day twelve, EtOH 5.8 (2.6)): 15.2 (2.2)
- embryos with increase in runx1/cmyb+ AGM HSCs (runx1/cmyb+ AGM HSCs): 78%
- increased runx1/cmyb+ HSCs (# embryos altered/# scored) (runx1/cmyb+ AGM HSCs; 36 hpf): 97/124
- wnt activity (GFP expression) in TOP:dGFP embryos (wnt activity): enhance wnt signaling
- rescue of the mindbomb mutant (AGM HSCs): failed to demonstrate any type of rescue
